Assay results as given in patent US20030108576A1, “Composition” (Colgate-Palmolive Company, priority 2001, published 2003).

Assay: Vitamin E stability aging of the compositions in clear PET packaging
Format: physicochemical
Protocol: Samples of each example are put on stability aging using clear PET packaging at room temperature, 77° F.; high temperature, 110° F.; and in the window for natural sunlight exposure. Samples are evaluated for vitamin content initially, then again at 4,8, and 13 weeks. Below are the results.

Compound: CC(C)(C)c1cc(O)ccc1O [2-tertiary butyl hydroquinone]
- retention of vitamin E compared with other antioxidants (77° F. and 110° F.): essentially equivalent to the other antioxidants
- retention of vitamin E in sunlight compared with other test antioxidants (sunlight): substantially more retention of vitamin E in sunlight than any of the other test antioxidants
